Test results published in patent publication US11433043B2, “Compounds useful for increasing neurogenesis in neural tissue” (ALFASIGMA S.P.A., priority 2010, dated 2022).

Assays:
Type in all cases: cell-based
[1] = system: adult neural progenitors taken from the mouse hippocampus; test: Differentiation of stem cells/adult neural progenitors from hippocampal neurospheres (MAP-2/nestin immunofluorescence); details: for NPC neuronal differentiation: compared to ALC 1 mM
Method: The adult stem cells from the mouse hippocampus were prepared and maintained in culture in the form of neurospheres as described previously in Denis-Donini S. et al. J. Neuroscience, 2008. In particular, male CD1 mice aged 3-5 months were used, in accordance with the animal experimentation laws.
For differentiation, the cells derived from the hippocampal neurospheres with passages of between 4-12 were dissociated and plated on Lab-Tek 8-well permanox chamber slides (Nunc, Wiesbaden, Germany) previously coated with mouse laminin (2.5 μg/cm^2 Sigma) at a density of about 40,000 cells/cm^2. The composition of the differentiation medium was: Neurobasal-A, supplement B27, glutamine 2 mM, 100 U/100 μg/ml penicillin/streptomycin. ALC (0.1-2 mM) or a vehicle was added to the medium. After 24 hours the cells were washed and fixed in 4% paraformaldehyde for 20 min for subsequent analysis using immunofluorescence.
The cells fixed after differentiation in the presence of ALC, a vehicle or reference drugs were washed three times in PBS and permeabilized by incubation for 5 min, at room temperature with PBS supplemented with 0.48% (vol/vol) Triton X-100 (Sigma). Subsequently the cells were incubated with the following primary antibodies: anti-nestin mouse monoclonal antibody, 1:1200, Abcam, Cambridge, Mass.); anti-MAP-2 (rabbit polyclonal antibody, 1:600, Chemicon). The cells were incubated in the primary antibody for 150 min at room temperature in a solution containing 8% (vol/vol) of goat serum. The secondary antibodies used were: Alexa Fluor 594-conjugated donkey anti mouse antibody (1:1400, Molecular Probes), Alexa Fluor 488-conjugated donkey anti-rabbit (1:1 600, Molecular Probes), in a solution containing 16% (vol/vol) of donkey serum. The nuclei were then counterstained with Draq5 (1:2000, Alexis Biochemicals) prepared in PBS. The slides were assembled using Fluorescent Mounting Medium (DakoCytomation, Glostrup).
In each experiment, the cells of at least 5 fields/well (corresponding to about 150 cells), were quantified if positive to one or more phenotypical markers used to distinguish between them: undifferentiated stem progenitor cells, immature neurons, mature neurons. The cells were counted by an operator (blind to the nature of the treatment undergone by the cells) using an ECLIPSE E600 fluorescence microscope (NIKON, Calenzano, Italy) with a 60× lens. All experiments were conducted on at least five cell preparations, with each experimental point in triplicate.

[2] = system: adult neural progenitors taken from the mouse hippocampus; test: Cell survival: apoptotic nuclei (Hoechst staining) after differentiation
Method: (§1) After differentiation in the presence of ALC, a vehicle or reference drugs, the medium was collected and the activity of the LDH enzyme was determined using the Cytotoxicity Detection Kit LDH (Roche Applied Science), following the manufacturer's instructions, to quantify death due to necrosis. In parallel, to assess also apoptotic death, after fixation, the cell nuclei were marked with 0.8 ng/ml Hoechst (Sigma-Aldrich) diluted in PBS. The apoptic nuclei were counted by an operator (blind to the nature of the treatment undergone by the cells) using an ECLIPSE E600 fluorescence microscope (NIKON, Calenzano, Italy) with a 60× lens. All experiments were conducted on at least five cell preparations, with each experimental point in triplicate.

[3] = system: adult neural progenitors taken from the mouse hippocampus; test: Cell survival: LDH enzyme activity in culture medium (necrosis)
Method: as §1

[4] = Example 2, 0.3-1 mM, lesser extent compared to ALC 1 mM, FIG. 6
[5] = at the concentrations that induced neurogenesis
[6] = Example 1, ALC 0.1-2 mM, 24 hours, FIG. 5

Row | Structure (SMILES) | NPC neuronal differentiation ([1]; Example 2, 0.3-1 mM, FIG. 6) | number of a subpopulation of undifferentiated stem/neural progenitors [1, 4] | number of immature neurons [1, 4] | number of mature neurons [1, 4] | percentage of apoptotic nuclei [2, 5] | activity of the LDH enzyme, an index of necrosis [3, 5] | percentage of MAP-2 positive cells in culture ([1]; Example 1, ALC 0.1-2 mM, 24 hours differentiation, concentration-dependent, FIG. 1) | number of immature neurons (MAP2 positive, nestin positive) [1, 6] | number of progenitor cells (MAP2 negative, nestin negative) [1, 6] | number of stem/progenitor cells (MAP2 negative, nestin positive) [1, 6] | number of mature neurons (MAP2 positive, nestin negative) ([1]; Example 1, ALC 0.1-2 mM, 24 hours, concentration-dependent, FIG. 5) | percentage of apoptotic nuclei ([2]; ALC 100 μM, 300 μM or 1 mM, FIG. 3) | activity of the LDH enzyme, an index of necrosis, in the culture medium ([3]; ALC 100 μM, 300 μM or 1 mM, FIG. 4)
1 | CCC(=O)O[C@H](CC(=O)[O-])C[N+](C)(C)C [PLC, propionyl L-carnitine] | less potent activator | reduced | increased | increased | did not reduce | did not reduce | – | – | – | – | – | – | –
2 | C[N+](C)(C)C[C@H](O)CC(=O)[O-] [LC, L-carnitine] | no effect | – | – | – | – | – | – | – | – | – | – | – | –
3 | CC(=O)O[C@H](CC(=O)[O-])C[N+](C)(C)C [ALC, acetyl L-carnitine] | – | – | – | – | – | – | increase | increased | decreased | no effect | increased | did not reduce | did not reduce
